Results as given in patent US5198461A, “Isatine derivatives, their preparation and use” (NeuroSearch A/S, priority 1989, dated 1993).

Experiments:
[1] = molecular target: 3H-kainate, 3H-AMPA and/or 3H-glycine binding sites; experiment: Kainate, quisqualate (3H-AMPA) and glycine binding assays; conditions: site(s) not specified per compound ('and/or')
Description: The quisqualate binding assay was performed as described by T. Honore et al., Neuroscience Letters 54, 27-32 (1985).
The kainate binding assay was performed as described by T. Honore et al., Neuroscience Letters 65, 47-52 (1986).
The glycine binding assay was performed as described by W. Frost White et al., Journal of Neurochemistry 53(2), 503-512 (1989).

[2] = test system: NMDA-induced clonic seizures in male NMRI mice; experiment: NMDA-induced clonic seizures; type: in vivo; conditions: Mus musculus, iv, NMDA icv, test compound i.v. 5 min before, given as 'quisqualate or NMDA-induced convulsions', read-out: ED50, inhibition of NMDA-induced convulsions
Description: NMDA give icv to NMRI mice induces clonic seizures which can be inhibited by NMDA receptor antagonists.
Test compound was given i.v. 5 min before a 0.5 μg icv administration of NMDA to 10 male NMRI mice per dose. The number of mice experiencing clonic seizures within the next 2 min was noted. An ED50 value was calculated as the dose inhibiting 50% of the mice from having clonic seizures.

[3] = test system: quisqualate-induced clonic seizures in male DBA/2 mice; experiment: Quisqualate-induced clonic seizures; type: in vivo; conditions: Mus musculus, iv, quisqualate icv, test compound i.v. 5 min before, given as 'quisqualate or NMDA-induced convulsions', read-out: ED50, inhibition of quisqualate-induced convulsions
Description: Quisqualate given icv (intracerebroventricular) to DBA/2 mice induces clonic seizures which can be inhibited by both NMDA and non-NMDA receptor antagonists after i.v. administration.
Test compound was given i.v. 5 min before a 20 pg icv administration of quisqualate to 10 male DBA/2 mice (weighing 10-12 g) per dose. The number of mice experiencing clonic seizures within the next 2 min was noted. An ED50 value was calculated as the dose inhibiting 50% of the mice from having clonic seizures.

[4] = test system: ATPA-induced rigidity in female NMRI mice; experiment: ATPA-induced rigidity; type: in vivo; conditions: Mus musculus, 15 mg/kg ATPA i.v., test compound i.v. or p.o., read-out: ED50, inhibition of ATPA-induced rigidity
Description: The selective quisqualate receptor agonist ATPA induces rigidity in female NMRI mice at doses between 3 and 15 mg/kg and clonic-tonic seizures and death, probably due to respiratory arrest, at doses between 15 and 40 mg/kg after intravenous (i.v.) administration.
ATPA ((RS)-α-amino-3-hydroxy-5-tert-butyl-4-isoxazolepropionic acid) was dissolved in distilled water and test compound was dissolved in a polyoxyl 40 hydrogenated castor oil (5% Cremophor RH™ 40 (BASF)).
Test compound was administered either i.v. 5, 30 or 120 min before or p.o. 30 min before an i.v. administration of 15 mg/kg of ATPA to 8 female NMRI mice per dose and the number of mice experiencing rigidity 5 min later was noted. An ED50 value was calculated from at least three doses of test compound as the dose inhibiting 50% of the mice from having rigidity.

[5] = test system: cocaine-induced hypermotility in female NMRI mice; experiment: Cocaine-induced hypermotility; type: in vivo; conditions: Mus musculus, po, administered orally, 25 mg/kg cocaine i.p., read-out: ED50, antagonism of cocaine-induced hypermotility
From the text: Quisqualate and kainate administered locally induce an increase in dopamine release in nucleus accumbens and nucleus caudatus accompanied by stereotype behaviour such as hyperlocomotion, rearing, sniffing and grooming. These effects can be inhibited by selective quisqualate antagonists administered locally by the micro-dialyses method.
Also the dopamine uptake inhibitor cocaine administered s.c. induce hypermotility which can be inhibited by an administration of the glutamate antagonist GDEE into nucleus accumbens.
Test compound was administered orally at doses of 0.1, 1, 10 and 30 mg/kg 30 min before the administration of 25 mg/kg cocaine i.p. to female NMRI mice and the locomotor activity of 2 mice per box was measured for the next 2 hours by use of 8 infrared photobeams per box. The mice had been adapted to the box for at least 16 hours to avoid exploratory motility (neophobia).

| SMILES | IC50 [1] | also measured |
| --- | --- | --- |
| O=C1Nc2c(ccc3ccccc23)C1=NO [1H-benz[g]indole-2,3-dione-3-oxime] | 10 to 100 µM |  |
| CCOC(=O)CN1C(=O)C(=NOC)c2cc([N+](=O)[O-])cc([N+](=O)[O-])c21 [5,7-dinitro-1-(ethoxycarbonylmethyl)-1H-indole-2,3-dione-3-(O-methyloxime)] |  | ED50 [2]: 0.1 to 10 mg/kg; ED50 [3]: 0.1 to 10 mg/kg; ED50 [4]: 0.1 to 10 mg/kg |
| CON=C1C(=O)N(C)c2c1cc([N+](=O)[O-])cc2[N+](=O)[O-] [5,7-dinitro-1-methyl-1H-indole-2,3-dione-3-(O-methyloxime)] |  | ED50 [2]: 0.1 to 10 mg/kg; ED50 [3]: 0.1 to 10 mg/kg; ED50 [5]: 0.5 to 1 mg/kg; ED50 [4]: 0.1 to 10 mg/kg |
| CN1C(=O)C(=NO)c2cc([N+](=O)[O-])cc([N+](=O)[O-])c21 [5,7-dinitro-1-methyl-1H-indole-2,3-dione-3-oxime] | 10 to 100 µM |  |
| O=C1Nc2c(cc([N+](=O)[O-])cc2[N+](=O)[O-])C1=NO [5,7-dinitro-1H-indole-2,3-dione-3-oxime] | 10 to 100 µM |  |
| O=C1Nc2ccc([N+](=O)[O-])cc2C1=NO [5-nitro-1H-indole-2,3-dione-3-oxime] | 10 to 100 µM |  |

Now from value to molecule, other results behind:

| IC50 [1] | SMILES | also measured |
| --- | --- | --- |
| 10 to 100 µM | CNS(=O)(=O)c1cc2c(c3c1CCCC3)NC(=O)C2=NO [5-(N-methylsulphamoyl)-6,7,8,9-tetrahydro-1H-benz[g]indole-2,3-dione-3-oxime] |  |
| 10 to 100 µM | O=C1Nc2c(cc(S(=O)(=O)NOCc3ccccc3)c3c2CCCC3)C1=NO [5-(benzyloxysulphamoyl)-6,7,8,9-tetrahydro-1H-benz[g]indole-2,3-dione-3-oxime] |  |
| 10 to 100 µM | O=C1Nc2c(cc(Br)cc2[N+](=O)[O-])C1=NO [5-bromo-7-nitro-1H-indole-2,3-dione-3-oxime] |  |
| 10 to 100 µM | O=C1Nc2c(cc([N+](=O)[O-])c3c2CCCC3)C1=NO [5-nitro-1H-6,7,8,9-tetrahydro-benz[g]indole-2,3-dione-3-oxime] |  |
| 10 to 100 µM | O=C1Nc2c(cc([N+](=O)[O-])c3ccccc23)C1=NO [5-nitro-1H-benz[g]indole-2,3-dione-3-oxime] |  |
